Source: patent US8802597B2, “Herbicidal pyrimidines” (E I du Pont de Nemours and Company, priority 2003, dated 2014)
Like-named read-outs stand apart in the source and are kept apart here.

Columns and labels:
Format in all cases: in vivo
corn (Zea mays) = assay: Test C pre/postemergence; settings: for Corn plant response rating (crop injury, 0 = no effect, 100 = complete kill) at 16 g/ha: 16 g ai/ha; for Corn plant response rating (crop injury, 0 = no effect, 100 = complete kill) at 8 g/ha: 8 g ai/ha
Method in brief: (§1)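 Applications: preemergence onto seeded soil and postemergence onto 1- to 4-leaf seedlings, compound carried in non-phytotoxic solvent plus surfactant. Kept in greenhouse 12 to 14 days. Scored visually relative to untreated controls, 0 (no effect) to 100 (complete control).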

[1] = test system: Surinam grass (Brachiaria decumbens); assay: Test C pre/postemergence; settings: for pest or weed control at 16 g/ha: 16 g ai/ha; for pest or weed control at 8 g/ha: 8 g ai/ha
Method in brief: as §1

[2] = test system: goosegrass (Eleusine indica); assay: Test C pre/postemergence; settings: for pest or weed control at 16 g/ha: 16 g ai/ha; for pest or weed control at 8 g/ha: 8 g ai/ha
Method in brief: as §1

[3] = test system: purple redstem (Ammannia coccinea); assay: Test E flooded paddy water application; settings: Flood, 21 days, scale 0 to 100 (0 no effect, 100 complete control); for Plant response rating, Redstem: 16 g ai/ha
Method in brief: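 Greenhouse pots of Tama silt loam with weeds and rice at 2.0–2.5-leaf stage, flooded to 3 cm; compounds applied directly into paddy water, depth maintained. Visual rating versus untreated controls after 21 days, 0 (no effect) to 100 (complete control); 29.5/26.7 °C, 16-h photoperiod.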

[4] = Postemergence, 62 g ai/ha, scale 0 to 100 (0 no effect, 100 complete control)
[5] = Postemergence, 125 g ai/ha, scale 0 to 100 (0 no effect, 100 complete control)
[6] = Postemergence, 250 g ai/ha, scale 0 to 100
[7] = Postemergence, 500 g ai/ha, scale 0 to 100
[8] = Zea mays, post-emergence, Postemergence, read-out: Plant response rating (scale of 0 to 100), Corn
[9] = Zea mays, post-emergence, Postemergence, 62 g ai/ha, read-out: Plant response rating (scale of 0 to 100), Corn
[10] = Urochloa decumbens, post-emergence, Postemergence, read-out: Plant response rating (scale of 0 to 100), Surinam Grass
[11] = Urochloa decumbens, post-emergence, Postemergence, 31 g ai/ha, read-out: Plant response rating (scale of 0 to 100), Surinam Grass
[12] = Urochloa decumbens, post-emergence, Postemergence, 62 g ai/ha, read-out: Plant response rating (scale of 0 to 100), Surinam Grass
[13] = Eleusine indica, post-emergence, Postemergence, read-out: Plant response rating (scale of 0 to 100), Goosegrass
[14] = Eleusine indica, post-emergence, Postemergence, 31 g ai/ha, read-out: Plant response rating (scale of 0 to 100), Goosegrass
[15] = Eleusine indica, post-emergence, Postemergence, 62 g ai/ha, read-out: Plant response rating (scale of 0 to 100), Goosegrass

SMILES: CCOC(=O)c1nc(-c2ccc(Cl)cc2)nc(N)c1Br [Compound 37]
- Corn plant response rating (corn (Zea mays); [4]): 0
- Corn plant response rating (corn (Zea mays); [5]): 10
- Plant response rating, Corn (corn (Zea mays); [6]): 15
- Plant response rating, Corn (corn (Zea mays); [7]): 25
- Surinam Grass plant response rating [1, 4]: 0
- Surinam Grass plant response rating [1, 5]: 0
- Plant response rating, Surinam Grass [1, 6]: 0
- Plant response rating, Surinam Grass [1, 7]: 0
- Goosegrass plant response rating [2, 4]: 0
- Goosegrass plant response rating [2, 5]: 0
- Plant response rating, Goosegrass [2, 6]: 0
- Plant response rating, Goosegrass [2, 7]: 0
- Redstem plant response rating ([3]; 32 g ai/ha): 0
- Redstem plant response rating ([3]; 64 g ai/ha): 30
- Redstem plant response rating ([3]; 125 g ai/ha): 40
- Redstem plant response rating ([3]; 250 g ai/ha): 80
- Plant response rating, Redstem [3]: 0

SMILES: COC(=O)c1nc(-c2ccc(C(F)(F)F)cc2)nc(N)c1Cl [Compound 44]
- Redstem plant response rating ([3]; 32 g ai/ha): 0
- Redstem plant response rating ([3]; 64 g ai/ha): 10
- Redstem plant response rating ([3]; 125 g ai/ha): 20
- Redstem plant response rating ([3]; 250 g ai/ha): 50
- Redstem plant response rating ([3]; 500 g ai/ha): 75

SMILES: COC(=O)c1nc(-c2ccc(Cl)cc2)nc(N)c1Cl [Compound 58, methyl 6-amino-5-chloro-2-(4-chlorophenyl)-4-pyrimidinecarboxylate]
- Redstem plant response rating ([3]; 32 g ai/ha): 80
- Redstem plant response rating ([3]; 64 g ai/ha): 85
- Redstem plant response rating ([3]; 125 g ai/ha): 95
- Redstem plant response rating ([3]; 250 g ai/ha): 95
- Plant response rating, Redstem [3]: 60

SMILES: CCOC(=O)c1nc(-c2ccc3c(c2)OCO3)nc(N)c1Cl [Compound 74]
- Redstem plant response rating ([3]; 32 g ai/ha): 0
- Redstem plant response rating ([3]; 64 g ai/ha): 0
- Redstem plant response rating ([3]; 125 g ai/ha): 20
- Redstem plant response rating ([3]; 250 g ai/ha): 25
- Plant response rating, Redstem [3]: 0

SMILES: Nc1nc(-c2ccc(Cl)cc2)nc(C(=O)O)c1Br [Compound 88]
- Plant response rating (scale of 0 to 100), Corn (corn (Zea mays); Postemergence, 31 g ai/ha): 0
- Plant response rating (scale of 0 to 100), Corn (corn (Zea mays); Postemergence, 62 g ai/ha): 0
- Plant response rating, Corn (corn (Zea mays); [6]): 30
- Plant response rating (scale of 0 to 100), Surinam Grass ([1]; Postemergence, 31 g ai/ha): 45
- Plant response rating (scale of 0 to 100), Surinam Grass ([1]; Postemergence, 62 g ai/ha): 60
- Surinam Grass plant response rating [1, 5]: 80
- Plant response rating, Surinam Grass [1, 6]: 85
- Plant response rating (scale of 0 to 100), Goosegrass ([2]; Postemergence, 31 g ai/ha): 50
- Plant response rating (scale of 0 to 100), Goosegrass ([2]; Postemergence, 62 g ai/ha): 75
- Goosegrass plant response rating [2, 5]: 75
- Plant response rating, Goosegrass [2, 6]: 80
- Redstem plant response rating ([3]; 32 g ai/ha): 0
- Redstem plant response rating ([3]; 64 g ai/ha): 0
- Redstem plant response rating ([3]; 125 g ai/ha): 0
- Redstem plant response rating ([3]; 250 g ai/ha): 65
- Plant response rating, Redstem [3]: 0

SMILES: Cc1ccc(-c2nc(N)c(Cl)c(C(=O)O)n2)cc1 [Compound 91]
- Redstem plant response rating ([3]; 32 g ai/ha): 0
- Redstem plant response rating ([3]; 64 g ai/ha): 0
- Redstem plant response rating ([3]; 125 g ai/ha): 30
- Redstem plant response rating ([3]; 250 g ai/ha): 50
- Plant response rating, Redstem [3]: 0

SMILES: CCOC(=O)c1nc(-c2ccc(Br)cc2)nc(N)c1Cl [Compound 94, ethyl 6-amino-2-(4-bromophenyl)-5-chloro-4-pyrimidinecarboxylate]
- Corn plant response rating (crop injury, 0 = no effect, 100 = complete kill) at 16 g/ha (corn (Zea mays); [8]): 10%
- Corn plant response rating (crop injury, 0 = no effect, 100 = complete kill) at 31 g/ha (corn (Zea mays); Zea mays, post-emergence, Postemergence, 31 g ai/ha, read-out: Plant response rating (scale of 0 to 100), Corn): 35%
- Corn plant response rating (crop injury, 0 = no effect, 100 = complete kill) at 62 g/ha (corn (Zea mays); [9]): 35%
- Corn plant response rating (crop injury, 0 = no effect, 100 = complete kill) at 125 g/ha (corn (Zea mays); Zea mays, post-emergence, Postemergence, 125 g ai/ha, scale 0 to 100 (0 no effect, 100 complete control), read-out: Corn plant response rating): 60%
- pest or weed control at 125 g/ha ([1]; Urochloa decumbens, post-emergence, Postemergence, 125 g ai/ha, scale 0 to 100 (0 no effect, 100 complete control), read-out: Surinam Grass plant response rating): 100%
- pest or weed control at 16 g/ha [1, 10]: 50%
- pest or weed control at 31 g/ha [1, 11]: 60%
- pest or weed control at 62 g/ha [1, 12]: 90%
- pest or weed control at 16 g/ha [2, 13]: 35%
- pest or weed control at 31 g/ha [2, 14]: 60%
- pest or weed control at 62 g/ha [2, 15]: 80%
- pest or weed control at 125 g/ha ([2]; Eleusine indica, post-emergence, Postemergence, 125 g ai/ha, scale 0 to 100 (0 no effect, 100 complete control), read-out: Goosegrass plant response rating): 80%
- Redstem plant response rating ([3]; 32 g ai/ha): 65
- Redstem plant response rating ([3]; 64 g ai/ha): 75
- Redstem plant response rating ([3]; 125 g ai/ha): 100
- Redstem plant response rating ([3]; 250 g ai/ha): 100
- Plant response rating, Redstem [3]: 0

SMILES: Nc1nc(-c2ccc(Br)cc2)nc(C(=O)O)c1Cl [Compound 95, 6-amino-2-(4-bromophenyl)-5-chloro-4-pyrimidinecarboxylic acid]
- Corn plant response rating (crop injury, 0 = no effect, 100 = complete kill) at 8 g/ha (corn (Zea mays); Zea mays, post-emergence, Postemergence, scale 0 to 100): 20%
- Corn plant response rating (crop injury, 0 = no effect, 100 = complete kill) at 16 g/ha (corn (Zea mays); [8]): 20%
- Corn plant response rating (crop injury, 0 = no effect, 100 = complete kill) at 62 g/ha (corn (Zea mays); [9]): 35%
- Corn plant response rating (crop injury, 0 = no effect, 100 = complete kill) at 8 g/ha (corn (Zea mays); Zea mays, pre-emergence, Preemergence, scale 0 to 100 (0 no effect, 100 complete control)): 0%
- Corn plant response rating (crop injury, 0 = no effect, 100 = complete kill) at 16 g/ha (corn (Zea mays); Zea mays, pre-emergence, Preemergence, scale 0 to 100, 0 no effect, 100 complete control, read-out: Plant response rating, Corn): 0%
- Corn plant response rating (crop injury, 0 = no effect, 100 = complete kill) at 31 g/ha (corn (Zea mays); Zea mays, pre-emergence, Preemergence, 31 g ai/ha, scale 0 to 100, 0 no effect, 100 complete control, read-out: Plant response rating, Corn): 0%
- Corn plant response rating (crop injury, 0 = no effect, 100 = complete kill) at 62 g/ha (corn (Zea mays); Zea mays, pre-emergence, Preemergence, 62 g ai/ha, scale 0 to 100, 0 no effect, 100 complete control, read-out: Plant response rating, Corn): 5%
- pest or weed control at 8 g/ha ([1]; Urochloa decumbens, post-emergence, Postemergence, scale 0 to 100, read-out: Plant response rating, Surinam Grass): 55%
- pest or weed control at 16 g/ha [1, 10]: 65%
- pest or weed control at 31 g/ha [1, 11]: 70%
- pest or weed control at 62 g/ha [1, 12]: 75%
- pest or weed control at 8 g/ha ([1]; Urochloa decumbens, pre-emergence, Preemergence, scale 0 to 100 (0 no effect, 100 complete control), read-out: Plant response rating, Surinam Grass): 0%
- pest or weed control at 16 g/ha ([1]; Urochloa decumbens, pre-emergence, Preemergence, scale 0 to 100, 0 no effect, 100 complete control, read-out: Plant response rating, Surinam Grass): 0%
- pest or weed control at 31 g/ha ([1]; Urochloa decumbens, pre-emergence, Preemergence, 31 g ai/ha, scale 0 to 100, 0 no effect, 100 complete control, read-out: Plant response rating, Surinam Grass): 5%
- pest or weed control at 62 g/ha ([1]; Urochloa decumbens, pre-emergence, Preemergence, 62 g ai/ha, scale 0 to 100, 0 no effect, 100 complete control, read-out: Plant response rating, Surinam Grass): 10%
- pest or weed control at 8 g/ha ([2]; Eleusine indica, post-emergence, Postemergence, scale 0 to 100, read-out: Plant response rating, Goosegrass): 50%
- pest or weed control at 16 g/ha [2, 13]: 65%
- pest or weed control at 31 g/ha [2, 14]: 75%
- pest or weed control at 62 g/ha [2, 15]: 80%
- pest or weed control at 8 g/ha ([2]; Eleusine indica, pre-emergence, Preemergence, scale 0 to 100 (0 no effect, 100 complete control), read-out: Plant response rating, Goosegrass): 0%
- pest or weed control at 16 g/ha ([2]; Eleusine indica, pre-emergence, Preemergence, scale 0 to 100, 0 no effect, 100 complete control, read-out: Plant response rating, Goosegrass): 0%
- pest or weed control at 31 g/ha ([2]; Eleusine indica, pre-emergence, Preemergence, 31 g ai/ha, scale 0 to 100, 0 no effect, 100 complete control, read-out: Plant response rating, Goosegrass): 10%
- pest or weed control at 62 g/ha ([2]; Eleusine indica, pre-emergence, Preemergence, 62 g ai/ha, scale 0 to 100, 0 no effect, 100 complete control, read-out: Plant response rating, Goosegrass): 40%
- Redstem plant response rating ([3]; 64 g ai/ha): 30
- Redstem plant response rating ([3]; 125 g ai/ha): 70
- Redstem plant response rating ([3]; 250 g ai/ha): 80
- Plant response rating, Redstem [3]: 30

SMILES: COC(=O)c1nc(-c2ccc(Br)cc2)nc(N)c1Cl [Compound 96, methyl 6-amino-2-(4-bromophenyl)-5-chloro-4-pyrimidinecarboxylate]
- Redstem plant response rating ([3]; 32 g ai/ha): 85
- Redstem plant response rating ([3]; 64 g ai/ha): 90
- Redstem plant response rating ([3]; 125 g ai/ha): 100
- Redstem plant response rating ([3]; 250 g ai/ha): 100
- Plant response rating, Redstem [3]: 0

SMILES: COC(=O)c1nc(-c2ccc(I)cc2)nc(N)c1Br [Compound 128]
- Redstem plant response rating ([3]; 32 g ai/ha): 75
- Redstem plant response rating ([3]; 64 g ai/ha): 80
- Redstem plant response rating ([3]; 125 g ai/ha): 90
- Redstem plant response rating ([3]; 250 g ai/ha): 90
- Plant response rating, Redstem [3]: 0
